Experimental data published in patent US20240270740A1, “INHIBITORS OF CYCLIC GMP-AMP SYNTHASE AND USES THEREOF” (Ventus Therapeutics U.S., Inc., priority 2022, published 2024).
pIC50: −log10 of the molar value.

What was measured:
hcGAS [1] = molecular target: T1, hcGAS (Homo sapiens, UniProt Q8N884); test: hcGAS LCMS assay (direct measurement of cGAMP production); format: biochemical; conditions: 0.5 nM hcGAS, 100 μM ATP, 100 μM GTP, 25 nM dsDNA, 4 h incubation
Outline: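 Direct LC/MS readout of cGAMP formed: 4-h enzyme–substrate incubation with compound, stopped by acetonitrile/water quench carrying isotope-labelled cGAMP (0.15 mM) as standard. Potency reported as IC50 ranges.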

hcGAS [2] = molecular target: T1, hcGAS; test: hcGAS Kinase-Glo assay (ATP depletion); format: biochemical; conditions: 40 nM hcGAS, 100 μM ATP, 100 μM GTP, 25 nM dsDNA, 3 h incubation
Outline: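 Human cGAS activity measured indirectly as ATP depletion by Kinase-Glo luminescence, following the Lama et al. method with modified conditions. Output is IC50, binned into potency categories.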

T1 sequence (Q8N884 whole entry): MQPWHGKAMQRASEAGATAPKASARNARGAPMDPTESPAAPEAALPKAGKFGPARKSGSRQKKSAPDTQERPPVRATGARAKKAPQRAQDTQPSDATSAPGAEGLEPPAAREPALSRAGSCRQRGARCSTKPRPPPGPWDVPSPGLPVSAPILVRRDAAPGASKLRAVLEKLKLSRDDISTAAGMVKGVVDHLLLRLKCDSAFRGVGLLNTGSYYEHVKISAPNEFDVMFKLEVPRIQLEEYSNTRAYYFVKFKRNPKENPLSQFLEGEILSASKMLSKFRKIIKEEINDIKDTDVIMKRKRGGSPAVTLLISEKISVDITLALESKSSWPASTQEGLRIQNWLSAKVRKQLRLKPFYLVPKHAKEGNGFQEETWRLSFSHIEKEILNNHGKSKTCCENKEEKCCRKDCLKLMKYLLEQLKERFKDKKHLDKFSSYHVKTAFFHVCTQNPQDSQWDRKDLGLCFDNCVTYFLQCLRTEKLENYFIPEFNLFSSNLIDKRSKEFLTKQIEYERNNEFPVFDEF

Row | Compound | pIC50 (hcGAS [1]) | pIC50 (hcGAS [2])
1 | COC[C@H](C)Nc1cc(C(=O)Nc2nnc(-n3nccc3C)s2)oc(=O)c1OC [Compound 64, (S)-3-methoxy-4-((1-methoxypropan-2-yl)amino)-N-(5-(5-methyl-1H-pyrazol-1-yl)-1,3,4-thiadiazol-2-yl)-2-oxo-2H-pyran-6-carboxamide] | 7.22 to 7.70 | 7.00 to 7.52
2 | COc1c(NCC(C)(C)O)cc(C(=O)Nc2nnc(-n3nccc3C)s2)oc1=O [Compound 33, 4-(2-hydroxy-2-methylpropylamino)-5-methoxy-N-(5-(5-methyl-1H-pyrazol-1-yl)-1,3,4-thiadiazol-2-yl)-6-oxo-6H-pyran-2-carboxamide] | 7.22 to 7.70 | 7.52 to 8.00
3 | COc1c(NCCO)cc(C(=O)Nc2nnc(-n3nccc3C)s2)oc1=O [Compound 130, 4-((2-hydroxyethyl)amino)-3-methoxy-N-(5-(5-methyl-1H-pyrazol-1-yl)-1,3,4-thiadiazol-2-yl)-2-oxo-2H-pyran-6-carboxamide] | 7.22 to 7.70 | 7.00 to 7.52
4 | COc1c(N2CCCC2)cc(C(=O)Nc2nnc(-n3nccc3C)s2)oc1=O [Compound 216, 3-methoxy-N-(5-(5-methyl-1H-pyrazol-1-yl)-1,3,4-thiadiazol-2-yl)-2-oxo-4-(pyrrolidin-1-yl)-2H-pyran-6-carboxamide] | 7.70 to 8.30 | 7.00 to 7.52
5 | COc1c(N2CC[C@H](OC)C2)cc(C(=O)Nc2nnc(-n3nccc3C)s2)oc1=O [Compound 57, (S)-3-methoxy-4-(3-methoxypyrrolidin-1-yl)-N-(5-(5-methyl-1H-pyrazol-1-yl)-1,3,4-thiadiazol-2-yl)-2-oxo-2H-pyran-6-carboxamide] | 7.70 to 8.30 | 7.52 to 8.00
6 | COc1c(NCC(C)(C)OC)cc(C(=O)Nc2nnc(-n3nccc3C)s2)oc1=O [Compound 120, 3-methoxy-4-((2-methoxy-2-methylpropyl)amino)-N-(5-(5-methyl-1H-pyrazol-1-yl)-1,3,4-thiadiazol-2-yl)-2-oxo-2H-pyran-6-carboxamide] | 7.70 to 8.30 | 7.52 to 8.00
7 | COc1c(NC23CC(C(C)(C)O)(C2)C3)cc(C(=O)Nc2nnc(-n3nccc3C)s2)oc1=O [Compound 117, 4-((3-(2-hydroxypropan-2-yl)bicyclo[1.1.1]pentan-1-yl)amino)-3-methoxy-N-(5-(5-methyl-1H-pyrazol-1-yl)-1,3,4-thiadiazol-2-yl)-2-oxo-2H-pyran-6-carboxamide] | 7.70 to 8.30 | 7.52 to 8.00
8 | COc1c(N2CC[C@@H](S(C)(=O)=O)C2)cc(C(=O)Nc2nnc(-n3nccc3C)s2)oc1=O [Compound 8, (R)-3-methoxy-N-(5-(5-methyl-1H-pyrazol-1-yl)-1,3,4-thiadiazol-2-yl)-4-(3-(methylsulfonyl)pyrrolidin-1-yl)-2-oxo-2H-pyran-6-carboxamide] | 7.70 to 8.30 | 7.52 to 8.00
9 | COC[C@@H](C)Nc1cc(C(=O)Nc2nnc(-n3nccc3C)s2)oc(=O)c1OC [Compound 121, (R)-3-methoxy-4-((1-methoxypropan-2-yl)amino)-N-(5-(5-methyl-1H-pyrazol-1-yl)-1,3,4-thiadiazol-2-yl)-2-oxo-2H-pyran-6-carboxamide] | 7.70 to 8.30 | 7.52 to 8.00

The next lines start with the values.

Row | pIC50 (hcGAS [1]) | pIC50 (hcGAS [2]) | Compound
10 | 7.70 to 8.30 | 7.52 to 8.00 | COc1c(N2CC[C@@H](O)C2)cc(C(=O)Nc2nnc(-n3nccc3C)s2)oc1=O [Compound 30, (R)-4-(3-hydroxypyrrolidin-1-yl)-3-methoxy-N-(5-(5-methyl-1H-pyrazol-1-yl)-1,3,4-thiadiazol-2-yl)-2-oxo-2H-pyran-6-carboxamide]
11 | 7.70 to 8.30 | 7.52 to 8.00 | COCC(COC)Nc1cc(C(=O)Nc2nnc(-n3nccc3C)s2)oc(=O)c1OC [Compound 10, 4-((1,3-dimethoxypropan-2-yl)amino)-3-methoxy-N-(5-(5-methyl-1H-pyrazol-1-yl)-1,3,4-thiadiazol-2-yl)-2-oxo-2H-pyran-6-carboxamide]
12 | > 8.30 | > 8.00 | COc1c(NC23CC(C2)C3)cc(C(=O)Nc2nnc(-c3c(Cl)ccn3C)s2)oc1=O [Compound 41, 4-{bicyclo[1.1.1]pentan-1-ylamino}-N-[5-(3-chloro-1-methylpyrrol-2-yl)-1,3,4-thiadiazol-2-yl]-5-methoxy-6-oxopyran-2-carboxamide]
13 | 7.70 to 8.30 | 7.52 to 8.00 | COc1c(NC[C@@H]2CCCO2)cc(C(=O)Nc2nnc(-n3nccc3C)s2)oc1=O [Compound 66, (S)-3-methoxy-N-(5-(5-methyl-1H-pyrazol-1-yl)-1,3,4-thiadiazol-2-yl)-2-oxo-4-(((tetrahydrofuran-2-yl)methyl)amino)-2H-pyran-6-carboxamide]
14 | > 8.30 | > 8.00 | COc1c(N[C@H]2CCC[C@H]2O)cc(C(=O)Nc2nnc(-c3c(Cl)ccn3C)s2)oc1=O (racemic) [Rac-188, N-(5-(3-chloro-1-methyl-1H-pyrrol-2-yl)-1,3,4-thiadiazol-2-yl)-4-(((1S,2R)-2-hydroxycyclopentyl)amino)-3-methoxy-2-oxo-2H-pyran-6-carboxamide]
15 | 7.70 to 8.30 | 7.52 to 8.00 | COC[C@H]1CCCN1c1cc(C(=O)Nc2nnc(-n3nccc3C)s2)oc(=O)c1OC [Compound 38, (R)-3-methoxy-4-(2-(methoxymethyl)pyrrolidin-1-yl)-N-(5-(5-methyl-1H-pyrazol-1-yl)-1,3,4-thiadiazol-2-yl)-2-oxo-2H-pyran-6-carboxamide]
16 | 7.70 to 8.30 | 7.52 to 8.00 | COCCNc1cc(C(=O)Nc2nnc(-c3sccc3Cl)s2)oc(=O)c1OC [Compound 146, N-[5-(3-chlorothiophen-2-yl)-1,3,4-thiadiazol-2-yl]-5-methoxy-4-[(2-methoxyethyl)amino]-6-oxopyran-2-carboxamide]
17 | 7.70 to 8.30 | 7.52 to 8.00 | 3-methoxy-4-(((1R,2S)-2-methoxycyclobutyl)amino)-N-(5-(5-methyl-1H-pyrazol-1-yl)-1,3,4-thiadiazol-2-yl)-2-oxo-2H-pyran-6-carboxamide [Rac-67]
